Measurements as given in US20260176267A1, “PREPARATION OF IMIDAZOPYRIDINE AND IMIDAZOPYRIDAZINE DERIVATIVES AS NOVEL DIACYLGLYCERIDE O-ACYLTRANSFERASE 2 INHIBITORS” (Merck Sharp & Dohme LLC, priority 2022, published 2026).

Target: T1, human DGAT2 (hDGAT2) (Homo sapiens, UniProt Q96PD7)
T1 construct: made in house; host or cells: Sf-9 insect cells (baculovirus), membrane fraction
T1 sequence (Q96PD7 1-388): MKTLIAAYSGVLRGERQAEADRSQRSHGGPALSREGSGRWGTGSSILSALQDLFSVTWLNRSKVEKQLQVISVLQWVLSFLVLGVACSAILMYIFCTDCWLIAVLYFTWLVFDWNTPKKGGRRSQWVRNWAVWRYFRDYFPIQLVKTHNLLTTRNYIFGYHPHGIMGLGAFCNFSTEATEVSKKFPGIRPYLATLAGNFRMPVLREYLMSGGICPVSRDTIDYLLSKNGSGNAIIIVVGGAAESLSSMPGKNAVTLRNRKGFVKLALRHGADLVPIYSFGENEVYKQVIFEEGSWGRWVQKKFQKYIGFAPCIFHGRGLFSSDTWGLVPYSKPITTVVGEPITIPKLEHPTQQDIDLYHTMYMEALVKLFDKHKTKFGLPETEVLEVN
Assay: DGAT2 Enzymatic Activity Assay
Assay type: biochemical
Conditions: membrane prep of Sf-9 cells expressing hDGAT2; 13C18-triolein product by LC/MS/MS; 25 μM diolein, 5 μM 13C oleoyl-CoA, rt
Summary of the method: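 At room temperature, DGAT2 activity in baculovirus-infected Sf-9 membrane preps (human enzyme, untagged) is measured as formation of ^13C18-triolein. Product is extracted and measured by positive-mode LC/MS/MS, with the ratio to spiked ^13C21-triolein giving inhibition and IC50.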

Structure (SMILES)	IC50 [nM]
CC1(NC(=O)c2nc3ccc(Oc4ncccc4OCC(F)(F)F)cn3c2Cl)CCS(=O)(=O)CC1 [Example 130, 3-chloro-N-(4-methyl-1,1-dioxo-thian-4-yl)-6-[[3-(2,2,2-trifluoroethoxy)-2-pyridyl]oxy]imidazo[1,2-a]pyridine-2-carboxamide]	3.3
Cc1c(C(=O)NC2CCS(=O)(=O)C(C)(C)C2)nc2ccc(Oc3ncc(F)cc3OCC(F)(F)F)cn12 (stereo not drawn) [Example 105, N-(2,2-dimethyl-1,1-dioxo-thian-4-yl)-6-[[5-fluoro-3-(2,2,2-trifluoroethoxy)-2-pyridyl]oxy]-3-methyl-imidazo[1,2-a]pyridine-2-carboxamide]	193
CO[C@]1(C(F)(F)F)C[C@H](NC(=O)c2nc3ccc(Oc4ncc(F)cc4OCC(F)F)cn3c2C)C1 [Example 83, 6-[[3-(2,2-difluoroethoxy)-5-fluoro-2-pyridyl]oxy]-N-[3-methoxy-3-(trifluoromethyl)cyclobutyl]-3-methyl-imidazo[1,2-a]pyridine-2-carboxamide]	12
CC1(NC(=O)c2cn3cc(Oc4ncc(Cl)cc4OCC(F)(F)F)cnc3n2)CCS(=O)(=O)CC1 [Example 186, 6-((5-Chloro-3-(2,2,2-trifluoroethoxy)pyridin-2-yl)oxy)-N-(4-methyl-1,1-dioxidotetrahydro-2H-thiopyran-4-yl)imidazo[1,2-a]pyrimidine-2-carboxamide]	33
CCOc1ccccc1COc1ccc2nc(C(=O)NC3(C)CCS(=O)(=O)CC3)c(C)n2c1 [Example 124, 6-[(2-ethoxyphenyl)methoxy]-3-methyl-N-(4-methyl-1,1-dioxo-thian-4-yl)imidazo[1,2-a]pyridine-2-carboxamide]	5.7
O=C(N[C@H]1CCCC(F)(F)[C@@H]1O)c1cn2nc(Oc3ncc(Cl)cc3OCC(F)(F)F)ccc2n1 [Example 161, 6-((5-chloro-3-(2,2,2-trifluoroethoxy)pyridin-2-yl)oxy)-N-((1S,2R)-3,3-difluoro-2-hydroxycyclohexyl)imidazo[1,2-b]pyridazine-2-carboxamide]	37
CCOc1cc(C(F)(F)F)cnc1Oc1ccc2nc(C(=O)NC3(C)CCS(=O)(=O)CC3)c(C)n2c1 [Example 95, 6-[[3-ethoxy-5-(trifluoromethyl)-2-pyridyl]oxy]-3-methyl-N-(4-methyl-1,1-dioxo-thian-4-yl)imidazo[1,2-a]pyridine-2-carboxamide]	3
Cc1c(C(=O)NC2(C)CCS(=O)(=O)CC2)nc2ccc(Oc3ncc(Cl)cc3OCC3(F)CC3)cn12 [Example 81, 6-[[5-chloro-3-[(1-fluorocyclopropyl)methoxy]-2-pyridyl]oxy]-3-methyl-N-(4-methyl-1,1-dioxo-thian-4-yl)imidazo[1,2-a]pyridine-2-carboxamide]	3.5
CC1(CNC(=O)c2cn3cc(Oc4ncc(Cl)cc4OCC(F)(F)F)ccc3n2)CCS(=O)(=O)CC1 [Example 50, 6-[[5-chloro-3-(2,2,2-trifluoroethoxy)-2-pyridyl]oxy]-N-[(4-methyl-1,1-dioxo-thian-4-yl)methyl]imidazo[1,2-a]pyridine-2-carboxamide]	174
Cc1c(Oc2nccnc2OCC(F)F)ccc2nc(C(=O)NC3(C)CCS(=O)(=O)CC3)cn12 [Example 46, 6-[3-(2,2-difluoroethoxy)pyrazin-2-yl]oxy-5-methyl-N-(4-methyl-1,1-dioxo-thian-4-yl)imidazo[1,2-a]pyridine-2-carboxamide]	42
CC1(NC(=O)c2nc3ccc(Oc4ncccc4OCC(F)(F)F)cn3c2C(=O)O)CCS(=O)(=O)CC1 [Example 132, 2-((4-methyl-1,1-dioxidotetrahydro-2H-thiopyran-4-yl)carbamoyl)-6-((3-(2,2,2-trifluoroethoxy)pyridin-2-yl)oxy)imidazo[1,2-a]pyridine-3-carboxylic acid]	> 9990
CCOc1cccnc1Oc1ccc2nc(C(=O)Nc3cccnc3)cn2c1 [Example 54, 6-[(3-ethoxy-2-pyridyl)oxy]-N-(3-pyridyl)imidazo[1,2-a]pyridine-2-carboxamide]	850
Cc1c(C(=O)NC2(C)CCS(=O)(=O)CC2)nc2ccc(Oc3ncc(C#N)cc3OCC(F)(F)F)cn12 [Example 149, 6-[[5-cyano-3-(2,2,2-trifluoroethoxy)-2-pyridyl]oxy]-3-methyl-N-(4-methyl-1,1-dioxo-thian-4-yl)imidazo[1,2-a]pyridine-2-carboxamide]	33
Cc1c(C(=O)NC2(C)CCS(=O)(=O)CC2)nc2ccc(Oc3ncc(Cl)cc3OCC(F)F)cn12 [Example 71, 6-[[5-chloro-3-(2,2-difluoroethoxy)-2-pyridyl]oxy]-3-methyl-N-(4-methyl-1,1-dioxo-thian-4-yl)imidazo[1,2-a]pyridine-2-carboxamide]	1.4
Cc1c(Oc2ncc(Cl)cc2OCC(C)(F)F)ccc2nc(C(=O)NC3(C)CCS(=O)(=O)CC3)cn12 [Example 31, 6-[[5-chloro-3-(2,2-difluoropropoxy)-2-pyridyl]oxy]-5-methyl-N-(4-methyl-1,1-dioxo-thian-4-yl)imidazo[1,2-a]pyridine-2-carboxamide]	9.1
CC1(NC(=O)c2cn3cc(Oc4ncccc4OCC(F)(F)F)cc(F)c3n2)CCS(=O)(=O)CC1 [Example 7, 8-fluoro-N-(4-methyl-1,1-dioxo-thian-4-yl)-6-[[3-(2,2,2-trifluoroethoxy)-2-pyridyl]oxy]imidazo[1,2-a]pyridine-2-carboxamide]	4.7
Cc1cc2nc(C(=O)NC3(C)CCS(=O)(=O)CC3)cn2c(C)c1Oc1ncc(F)cc1OCC(C)(F)F [Example 40, 6-[[3-(2,2-difluoropropoxy)-5-fluoro-2-pyridyl]oxy]-5,7-dimethyl-N-(4-methyl-1,1-dioxo-thian-4-yl)imidazo[1,2-a]pyridine-2-carboxamide]	52
O=C(N[C@H]1CCCC(F)(F)[C@@H]1O)c1cn2cc(Oc3ncc(F)cc3OCC(F)(F)F)ccc2n1 [Example 16, N-[(1S,2R)-3,3-difluoro-2-hydroxy-cyclohexyl]-6-[[5-fluoro-3-(2,2,2-trifluoroethoxy)-2-pyridyl]oxy]imidazo[1,2-a]pyridine-2-carboxamide]	4.5
Cc1c(C(=O)NC2(C)CCN(C(=O)C(F)(F)F)CC2)nc2ccc(Oc3ncc(F)cc3OCC(F)(F)F)cn12 [Example 102, 6-[[5-fluoro-3-(2,2,2-trifluoroethoxy)-2-pyridyl]oxy]-3-methyl-N-[4-methyl-1-(2,2,2-trifluoroacetyl)-4-piperidyl]imidazo[1,2-a]pyridine-2-carboxamide]	128
CCOc1cccnc1Oc1ccc2nc(C(=O)N[C@@]3(C)CCS(=O)(=O)C3)cn2c1 [Example 35, 6-[(3-ethoxy-2-pyridyl)oxy]-N-[(3S)-3-methyl-1,1-dioxo-thiolan-3-yl]imidazo[1,2-a]pyridine-2-carboxamide]	52
CC1(NC(=O)c2cn3nc(Oc4ncc(F)cc4OCC4(F)CC4)ccc3n2)CCS(=O)(=O)CC1 [Example 155, 6-[[5-Fluoro-3-[(1-fluorocyclopropyl)methoxy]-2-pyridyl]oxy]-N-(4-methyl-1,1-dioxo-thian-4-yl)imidazo[1,2-b]pyridazine-2-carboxamide]	186
Cc1c(C(=O)NC2(C)CCS(=O)(=O)CC2)nc2cc(F)c(Oc3ncc(Cl)cc3OCC(F)(F)F)cn12 [Example 119, 6-[[5-chloro-3-(2,2,2-trifluoroethoxy)-2-pyridyl]oxy]-7-fluoro-3-methyl-N-(4-methyl-1,1-dioxo-thian-4-yl)imidazo[1,2-a]pyridine-2-carboxamide]	1
Cc1cc2nc(C(=O)NC3(C)CCS(=O)(=O)CC3)cn2cc1Oc1ncc(F)cc1OCC(F)(F)F [Example 29, 6-[[5-fluoro-3-(2,2,2-trifluoroethoxy)-2-pyridyl]oxy]-7-methyl-N-(4-methyl-1,1-dioxo-thian-4-yl)imidazo[1,2-a]pyridine-2-carboxamide]	13
CCOc1cccnc1Oc1ccc2nc(C(=O)NC3(C)CS(=O)(=O)C3)c(CC)n2c1 [Example 114, 6-[(3-ethoxy-2-pyridyl)oxy]-3-ethyl-N-(3-methyl-1,1-dioxo-thietan-3-yl)imidazo[1,2-a]pyridine-2-carboxamide]	64
CCC1(NC(=O)c2nc3ccc(Oc4ncc(F)cc4OCC(F)F)cn3c2C)CCS(=O)(=O)CC1 [Example 66, 6-[[3-(2,2-difluoroethoxy)-5-fluoro-2-pyridyl]oxy]-N-(4-ethyl-1,1-dioxo-thian-4-yl)-3-methyl-imidazo[1,2-a]pyridine-2-carboxamide]	0.8
Cc1cnc(Oc2ccc3nc(C(=O)NC4(C)CCS(=O)(=O)CC4)c(C)n3c2)c(OCC(F)(F)F)c1 [Example 144, 3-methyl-N-(4-methyl-1,1-dioxo-thian-4-yl)-6-[[5-methyl-3-(2,2,2-trifluoroethoxy)-2-pyridyl]oxy]imidazo[1,2-a]pyridine-2-carboxamide]	8.9
Cc1c(Oc2ncc(F)cc2OCC2(F)CC2)ccc2nc(C(=O)NC3(C)CCS(=O)(=O)CC3)cn12 [Example 33, 6-[[5-fluoro-3-[(1-fluorocyclopropyl)methoxy]-2-pyridyl]oxy]-5-methyl-N-(4-methyl-1,1-dioxo-thian-4-yl)imidazo[1,2-a]pyridine-2-carboxamide]	5.3
